The record followed here is patent US20210315893A1 (Galapagos NV, priority 2017, published 2021).

Experiment [1] concerns the target T1, human GPCR sphingosine 1-phosphate receptor 1 (Homo sapiens, UniProt P21453).
T1 construct: host or cells: CHO
The experiment can be described thus: S1PR1 selectivity Ca2+ flux assay (antagonist readout). The class given is cell-based. To be noted: antagonist readout, CHO cells overexpressing human S1PR1 and Gq, S1P at EC80 (6 nM); read-out: S1P1 EC50 (nM), S1P1 antagonist EC50. A digest of the protocol:
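Antagonist mode: S1P challenge follows 15 min compound preincubation at 37 °C. Cells are CHO stably expressing human S1PR1, serum-starved 1 h (0.1% FAF BSA), loaded with Fluo 8. Peak-over-baseline fluorescence ratio is normalized to positive/negative controls; IC50 from logistic curve fit.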
For orientation: Calcium flux is commonly read through the fluorescence of an indicator in the cells.

In a further experiment the target is T2, S1PR2 (Homo sapiens, UniProt O95136).
T2 construct: expressed in transfected cells
The experiment can be described thus: S1PR2 binding assay (competition with radioactively labeled S1P, SpA). Particulars: membranes from stable cell line over expressing S1PR2, SpA beads; read-out: S1P2 EC50 (nM), S1PR2 binding EC50. A digest of the protocol: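 Scintillation proximity read-out after 2 h room-temperature incubation of compound, [3H]S1P and S1PR2-overexpressing cell membranes on WGA-coated beads. Buffer: 20 mM Tris pH 7.5, 100 mM NaCl, 10 mM MgCl2, 1 mM Na3VO4, 0.4% fatty-acid-free BSA; plates counted immediately after centrifugation.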

The subject of experiment [2] is HFL-1 cells. The experiment can be described thus: IL8 assay in the presence of Human Serum Albumin. Particulars: HFL1, read-out: HSA IL8 EC50.
Experiment [3] concerns HFL-1 cells. Kind of experiment: IL-8 production assay (S1P induced IL-8). Particulars: Homo sapiens, HFL1; S1P (1 μM) induced IL-8 in HFL-1 cells, starvation medium without HSA; read-out: IL8 EC50. The experiment is classed as cell-based. The procedure, abridged:
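HFL-1 fibroblasts in low-serum medium were pretreated 1 h with a 10-point 1/3 series of compound starting at 30 μM (0.3% DMSO).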

Experiment [4] concerns the target T3, human GPCR sphingosine 1-phosphate receptor 2 (Homo sapiens, UniProt O95136).
T3 construct: host or cells: CHO
Kind of experiment: S1PR2 antagonist Ca2+ flux assay. The class given is cell-based. Particulars: antagonist mode, CHO-S1PR2 cells, S1P at EC80, Ca2+ fluorescence; read-out: S1P2 EC50 (nM), S1P2 antagonist EC50. A digest of the protocol:
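Antagonist mode: 15 min after compound addition, S1P (EC80) stimulates Fluo8-loaded, 1 h-starved CHO-S1PR2 cells, Ca2+ read over 3 min; a prior 3-min read checks compound agonism. EC50 from peak/baseline fluorescence ratio, normalised versus vehicle and S1P EC50 (antagonist) or EC100 (agonist).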

Experiment [5] addresses T4, human GPCR sphingosine 1-phosphate receptor 5 (Homo sapiens, UniProt Q9H228).
T4 construct: host or cells: CHO
Kind of experiment: S1PR5 selectivity Ca2+ flux assay (antagonist readout). The experiment is classed as cell-based. Particulars: CHO cells overexpressing human S1PR5 and Gq, agonist at EC80 (20 nM), read-out: S1P5 EC50 (nM), S1P5 antagonist EC50. The procedure, abridged:
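Antagonist readout: after 15 min compound preincubation at 37° C, human S1PR5/Gq CHO cells loaded with Fluo 8 dye received an EC80 challenge of S1PR5-specific agonist, and fluorescence was recorded for 3 min. Maximal-over-background ratios, normalized as % inhibition, gave IC50 by logistic fit.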

T2 sequence (O95136 whole entry): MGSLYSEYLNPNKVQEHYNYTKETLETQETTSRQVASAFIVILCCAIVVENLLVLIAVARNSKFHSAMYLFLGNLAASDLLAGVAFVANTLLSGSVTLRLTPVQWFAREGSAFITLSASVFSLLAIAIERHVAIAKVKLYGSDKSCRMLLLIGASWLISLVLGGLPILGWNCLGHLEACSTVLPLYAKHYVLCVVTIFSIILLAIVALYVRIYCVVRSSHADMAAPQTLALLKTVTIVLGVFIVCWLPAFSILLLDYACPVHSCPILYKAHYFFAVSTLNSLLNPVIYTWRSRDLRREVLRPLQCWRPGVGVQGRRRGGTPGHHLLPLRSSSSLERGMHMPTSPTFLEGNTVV
T3 sequence (O95136 whole entry): as above
T1 sequence (P21453 whole entry): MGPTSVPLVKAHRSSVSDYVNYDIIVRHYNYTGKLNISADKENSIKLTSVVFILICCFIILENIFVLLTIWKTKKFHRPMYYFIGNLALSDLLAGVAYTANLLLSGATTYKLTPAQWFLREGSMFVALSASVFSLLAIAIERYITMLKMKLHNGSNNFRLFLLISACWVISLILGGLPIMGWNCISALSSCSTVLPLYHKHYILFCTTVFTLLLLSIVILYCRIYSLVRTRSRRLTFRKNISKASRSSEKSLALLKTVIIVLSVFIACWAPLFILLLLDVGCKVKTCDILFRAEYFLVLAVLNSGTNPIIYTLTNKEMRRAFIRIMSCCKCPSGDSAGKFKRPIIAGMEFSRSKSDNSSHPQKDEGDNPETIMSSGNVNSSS
T4 sequence (Q9H228 whole entry): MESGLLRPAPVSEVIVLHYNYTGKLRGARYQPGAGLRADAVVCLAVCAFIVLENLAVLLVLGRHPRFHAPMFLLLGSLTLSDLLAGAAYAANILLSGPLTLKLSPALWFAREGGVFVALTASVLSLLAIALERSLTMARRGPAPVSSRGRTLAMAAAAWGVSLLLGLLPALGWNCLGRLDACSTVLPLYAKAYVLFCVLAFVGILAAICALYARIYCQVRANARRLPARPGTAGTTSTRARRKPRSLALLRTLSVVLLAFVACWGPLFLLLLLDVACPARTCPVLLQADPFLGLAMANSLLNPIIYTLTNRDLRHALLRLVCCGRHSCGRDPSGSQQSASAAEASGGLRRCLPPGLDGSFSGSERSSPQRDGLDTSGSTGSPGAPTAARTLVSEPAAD

For orientation: EC50 means the midpoint of the concentration-response curve. `O=C(O)Cn1nc(Cc2nc3cc(OCC(F)F)c(Cl)cc3[nH]2)c2c(F)ccc(F)c2c1=O` [Compound 126, 2-[4-[[6-chloro-5-(2,2-difluoroethoxy)-1H-benzimidazol-2-yl]methyl]-5,8-difluoro-1-oxo-phthalazin-2-yl]acetic acid]: the EC50 in experiment [1] was at least 19800 nM; at S1PR2, 93.5 nM; in the experiment on HFL-1 cells [2], 113 nM; in the experiment on HFL-1 cells [3] it was 5.97 nM; in experiment [4] it was 19.1 nM; in experiment [5], 19800 nM.
Regarding `CCOc1cc2nc(Cc3nn(CC(=O)O)c(=O)c4ccccc34)[nH]c2cc1C(F)(F)F` [Compound 127, 2-[4-[[5-ethoxy-6-(trifluoromethyl)-1H-benzimidazol-2-yl]methyl]-1-oxo-phthalazin-2-yl]acetic acid], the EC50 was found to be 3500 nM in experiment [1]; 479 nM at S1PR2; 61.7 nM in the experiment with HFL-1 cells [2]; 13.6 nM with HFL-1 cells [3]; 8.27 nM in experiment [4]; 19800 nM in experiment [5].
For `CCOc1cc2[nH]n(Cc3nn(CC(=O)O)c(=O)c4ccccc34)c(=O)c2cc1Cl` [Compound 128, 2-[4-[(5-chloro-6-ethoxy-3-oxo-1H-indazol-2-yl)methyl]-1-oxo-phthalazin-2-yl]acetic acid], the EC50 in experiment [1] is at least 19800 nM; at S1PR2, 1970 nM; in the experiment on HFL-1 cells [2] it was 701 nM; in the experiment on HFL-1 cells [3], 30.8 nM; in experiment [4], 28.3 nM; in experiment [5], 19800 nM.
Consider `O=C(O)Cn1nc(Cn2[nH]c3cc(OCC4CC4)c(Cl)cc3c2=O)c2ccccc2c1=O` [Compound 134, 2-[4-[[5-chloro-6-(cyclopropylmethoxy)-3-oxo-1H-indazol-2-yl]methyl]-1-oxo-phthalazin-2-yl]acetic acid], for which the 50% effective concentration (EC50) in experiment [1] was 12000 nM; at S1PR2 it was 745 nM; with HFL-1 cells [2], 163 nM; in the experiment on HFL-1 cells [3], 10.1 nM; in experiment [4], 10 nM; in experiment [5], 19800 nM.
On to `N#Cc1cc2nn(Cc3nn(CC(=O)O)c(=O)c4ccccc34)cc2cc1OCC1CC1` [Compound 135, 2-[4-[[6-cyano-5-(cyclopropylmethoxy)indazol-2-yl]methyl]-1-oxo-phthalazin-2-yl]acetic acid], for which the EC50 in experiment [1] was at least 19800 nM; on S1PR2 it was 178 nM; with HFL-1 cells [2], 3460 nM; in the experiment with HFL-1 cells [3], 24.3 nM; in experiment [4], 37.5 nM; in experiment [5], 19800 nM.
Turning to `CC(C)(C)NC(=O)Cn1nc(Cn2cc3cc(OCC4CC4)c(Cl)cc3n2)c2ccccc2c1=O` [Compound 144, N-tert-butyl-2-[4-[[6-chloro-5-(cyclopropylmethoxy)indazol-2-yl]methyl]-1-oxo-phthalazin-2-yl]acetamide], the EC50 in experiment [1] is at least 19800 nM; on S1PR2 it was 226 nM; in the experiment with HFL-1 cells [2], 3400 nM; in the experiment on HFL-1 cells [3] it was 511 nM; in experiment [4], 191 nM; in experiment [5], 19800 nM.
In the case of `O=C(Cn1nc(Cc2nc3cc(Cl)c(OC(F)(F)F)cc3[nH]2)c2c(c1=O)CCCC2)N[C@H]1CCC[C@@H]1O` [Compound 146, 2-[4-[[5-chloro-6-(trifluoromethoxy)-1H-benzimidazol-2-yl]methyl]-1-oxo-5,6,7,8-tetrahydrophthalazin-2-yl]-N-[(1S,2S)-2-hydroxycyclopentyl]acetamide], the EC50 in experiment [1] was at least 19900 nM; on S1PR2 it was 23 nM; in the experiment on HFL-1 cells [2], 280 nM; in the experiment on HFL-1 cells [3], 29.5 nM; in experiment [4] it was 15.3 nM; in experiment [5], 6640 nM.
Consider `O=C(Cn1nc(Cc2nc3cc(Cl)c(OCC4CC4)c(F)c3[nH]2)c2ccccc2c1=O)N1CCOCC1` [Compound 149, 4-[[5-chloro-6-(cyclopropylmethoxy)-7-fluoro-1H-benzimidazol-2-yl]methyl]-2-(2-morpholino-2-oxo-ethyl)phthalazin-1-one], for which the EC50 in experiment [1] is at least 19800 nM; on S1PR2, 142 nM; in the experiment with HFL-1 cells [2], 381 nM; with HFL-1 cells [3] it was 211 nM; in experiment [4], 30.4 nM; in experiment [5], 19800 nM.
As for `O=C(Cn1nc(Cc2nc3cc(OCC(F)F)c(Cl)cc3[nH]2)c2c(F)ccc(F)c2c1=O)N1CCOCC1` [Compound 152, 4-[[6-chloro-5-(2,2-difluoroethoxy)-1H-benzimidazol-2-yl]methyl]-5,8-difluoro-2-(2-morpholino-2-oxo-ethyl)phthalazin-1-one], the EC50 was at least 19800 nM in experiment [1]; 64 nM on S1PR2; 201 nM with HFL-1 cells [2]; 6.65 nM in the experiment with HFL-1 cells [3]; 19.1 nM in experiment [4]; 19800 nM in experiment [5].
For the compound `N#Cc1ccc2c(=O)n(CC(=O)N3CCOCC3)nc(Cc3nc4cc(OCC(F)F)c(Cl)cc4[nH]3)c2c1` [Compound 153], the EC50 is at least 19800 nM in experiment [1]; 246 nM at S1PR2; 254 nM with HFL-1 cells [2]; 27.4 nM with HFL-1 cells [3]; 28.5 nM in experiment [4]; 19800 nM in experiment [5].
Consider `O=C(Cn1nc(Cc2nc3cc(OCC(F)F)c(F)cc3[nH]2)c2ccccc2c1=O)N1CCOCC1` [Compound 156, 4-[[5-(2,2-difluoroethoxy)-6-fluoro-1H-benzimidazol-2-yl]methyl]-2-(2-morpholino-2-oxo-ethyl)phthalazin-1-one], for which the EC50 in experiment [1] is at least 19800 nM; on S1PR2, 647 nM; in the experiment with HFL-1 cells [2], 868 nM; in the experiment on HFL-1 cells [3] it was 593 nM; in experiment [4], 59.8 nM; in experiment [5], 19800 nM.
With `O=C(Cc1nn(Cc2nc3cc(OCC(F)F)c(Cl)cc3[nH]2)c2ccccc2c1=O)N1CCOCC1` [Compound 159, 1-[6-Chloro-5-(2,2-difluoro-ethoxy)-1H-benzoimidazol-2-ylmethyl]-3-(2-morpholin-4-yl-2-oxo-ethyl)-1H-cinnolin-4-one], the EC50 in experiment [1] is at least 19800 nM; at S1PR2 it was 30.7 nM; in the experiment on HFL-1 cells [2], 14 nM; in the experiment on HFL-1 cells [3] it was 1.02 nM; in experiment [4], 9.25 nM; in experiment [5], 19800 nM.
As for `N#CC1(COc2cc3[nH]c(Cc4nn(CC(=O)N5CCOCC5)c(=O)c5ccccc45)nc3cc2Cl)CC1` [Compound 161, 1-[[6-chloro-2-[[3-(2-morpholino-2-oxo-ethyl)-4-oxo-phthalazin-1-yl]methyl]-3H-benzimidazol-5-yl)oxymethyl]cyclopropanecarbonitrile], the EC50 in experiment [1] is at least 19800 nM; at S1PR2, 154 nM; in the experiment on HFL-1 cells [2], 108 nM; with HFL-1 cells [3] it was 47.4 nM; in experiment [4], 15.6 nM; in experiment [5], 19800 nM.
With `N#Cc1cc2nc(Cc3nn(CC(=O)N4CCOCC4)c(=O)c4c3CCCC4)[nH]c2cc1OCC(F)F` [Compound 164, 6-(2,2-difluoroethoxy)-2-[[3-(2-morpholino-2-oxo-ethyl)-4-oxo-5,6,7,8-tetrahydrophthalazin-1-yl]methyl]-1H-benzimidazole-5-carbonitrile], the EC50 in experiment [1] is at least 19800 nM; on S1PR2, 129 nM; with HFL-1 cells [2], 64.9 nM; with HFL-1 cells [3] it was 42.6 nM; in experiment [4], 31.9 nM; in experiment [5] it was 19800 nM.
On to `CCOc1cc2[nH]c(Cc3nn(CC(=O)N4CCOCC4)c(=O)c4c3CCCC4)nc2cc1C#N` [Compound 167, 6-ethoxy-2-[[3-(2-morpholino-2-oxo-ethyl)-4-oxo-5,6,7,8-tetrahydrophthalazin-1-yl]methyl]-1H-benzimidazole-5-carbonitrile], for which the EC50 in experiment [1] is at least 19800 nM; at S1PR2 it was 191 nM; in the experiment on HFL-1 cells [2], 18.4 nM; in the experiment on HFL-1 cells [3], 6.61 nM; in experiment [4] it was 13.2 nM; in experiment [5], 19800 nM.
Consider `CCOc1cc2[nH]c(Cc3nn(CC(=O)N4CCOCC4)c(=O)c4ccccc34)nc2cc1C(F)(F)F` [Compound 168, 4-[[6-ethoxy-5-(trifluoromethyl)-1H-benzimidazol-2-yl]methyl]-2-(2-morpholino-2-oxo-ethyl)phthalazin-1-one], for which the EC50 is at least 19800 nM in experiment [1]; 86.4 nM at S1PR2; 28.1 nM in the experiment on HFL-1 cells [2]; 4.57 nM in the experiment with HFL-1 cells [3]; 11.9 nM in experiment [4]; 19800 nM in experiment [5].
